Literature values as cited in patent US20200367542A1, “AROMA COMPOSITION” (SYMRISE AG, priority 2017, published 2020).

Columns and labels:
[1] = J. Chem. Senses 1979, 4(1), 35-47
[2] = purity>90%, in soft drinks

Compound | Taste described in the publication [1] | Concentration to achieve a sweetness corresponding to a concentration of sucrose of 10% by weight [2]
COc1ccc(CCC(=O)c2ccccc2O)cc1O [dihydrochalcone (2)] | intensively sweet tasting | –
COc1ccc(CCC(=O)c2c(O)cccc2O)cc1O [dihydrochalcone (3)] | tasteless | –
C=C1C[C@@]23CC[C@H]4[C@@](C)(CCC[C@@]4(C)C(=O)O[C@@H]4O[C@H](CO)[C@@H](O)[C@H](O)[C@H]4O)[C@@H]2CC[C@]1(O[C@@H]1O[C@H](CO)[C@@H](O)[C@H](O[C@@H]2O[C@H](CO)[C@@H](O)[C@H](O)[C@H]2O)[C@H]1O[C@@H]1O[C@H](CO)[C@@H](O)[C@H](O)[C@H]1O)C3 [rebaudioside A] | – | 400-600 ppm
